{"source": "patent US20070167412A1", "about": "“HALOCOMBSTATINS AND METHODS OF SYNTHESIS THEREOF” (ARIZONA BOARD OF REGENTS, priority 2003, published 2007)", "key": {"solubility in D2O": {"assay": "solubility in D2O", "format": "physicochemical", "conditions": "1 mL D2O at 25° C."}, "Pancreas BXPC-3": {"tested_on": "Pancreas BXPC-3", "assay": "human cancer cell growth inhibition, sulforhodamine B assay", "format": "cell-based", "conditions": "48 hours", "in_short": "(§1)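 Following the standard NCI SRB assay, cultures were treated for 48 h before trichloracetic acid fixation and dye staining.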"}, "Colon KM20L2": {"tested_on": "Colon KM20L2", "assay": "human cancer cell growth inhibition, sulforhodamine B assay", "format": "cell-based", "conditions": "48 hours", "in_short": "as §1"}, "Lung-NSC NCI-H460": {"tested_on": "Lung-NSC NCI-H460", "assay": "human cancer cell growth inhibition, sulforhodamine B assay", "format": "cell-based", "conditions": "48 hours", "in_short": "as §1"}, "Breast MCF-7": {"tested_on": "Breast MCF-7", "assay": "human cancer cell growth inhibition, sulforhodamine B assay", "format": "cell-based", "conditions": "48 hours", "in_short": "as §1"}, "CNS SF268": {"tested_on": "CNS SF268", "assay": "human cancer cell growth inhibition, sulforhodamine B assay", "format": "cell-based", "conditions": "48 hours", "in_short": "as §1"}, "Prostate DU-145": {"tested_on": "Prostate DU-145", "assay": "human cancer cell growth inhibition, sulforhodamine B assay", "format": "cell-based", "conditions": "48 hours", "in_short": "as §1"}, "Cryptococcus neoformans [1]": {"tested_on": "Cryptococcus neoformans", "conditions": "previously shown, Pettit et al. 2000; cited from earlier work"}, "[2]": {"conditions": "earlier study, Lin et al. 1988; cited from earlier work"}, "purified tubulin [3]": {"tested_on": "purified tubulin", "conditions": "earlier study, Lin et al. 1988; cited from earlier work"}, "tubulin [4]": {"tested_on": "tubulin", "conditions": "earlier study, Lin et al. 1988; cited from earlier work"}, "purified tubulin [5]": {"tested_on": "T1, purified tubulin", "T1 construct": "other: 10 μM tubulin, GTP 0.4 mM, 30° C., extent after 20 minutes", "assay": "inhibition of tubulin polymerization (turbidimetry)", "format": "biochemical", "conditions": "10 μM tubulin, GTP 0.4 mM, 30° C., extent after 20 minutes; read-out: Inhibition of polymerization IC50 ± S.D.", "experimental": "(§2) Tubulin polymerization was evaluated by turbidimetry at 350 nm using Beckman DU7400/7500 spectrophotometers as described in detail elsewhere. […] Varying concentrations of drug were preincubated with 10 μM:M ([…]) purified tubulin (See Hamel, E., et al., Separation of Active Tubulin and Microtubule-associated Proteins by Ultracentrifiigation and Isolation of a Component Causing the Formation of Microtubule Bundles, Biochemistry 1984, 23, 4173-4184). Samples were chilled on ice, GTP (0.4 mM) was added, and polymerization was followed at 30° C. The parameter measured was extent of the reaction after 20 minutes. Coichicine binding was measured as described in detail previously. Reaction mixtures contained 1.0 μM :M tubulin, 5.0:M, [^3H]colchicine (from Dupont), and inhibitor at 1.0 μM:M. Incubation was for 10 minutes at 37° C.\nTubulin Evaluations: Tubulin polymerization was evaluated by turbidimetry at […] using Beckman DU7400/7500 spectrophotometers as known to one of skill in the art. Varying concentrations of the compound were preincubated with 10 μM. […]"}, "[6]": {"tested_on": "microtubules in human umbilical vein endothelial cells (HUVEC)", "assay": "disruption of microtubules in HUVEC", "format": "cell-based", "text": "HUVECs were isolated according to methods know to one of skill in the art (see Jaffe, E. A. et al., Culture of Human Endothelial Cells Derived From Umbilical Veins. Identification by Morphologic and Immunologic Criteria, J. Clin. Invest. 1973, 52, 2754-2756.)"}, "[7]": {"tested_on": "human umbilical vein endothelial cells (HUVEC)", "assay": "Matrigel cord formation assay", "format": "cell-based", "conditions": "at both 0.01 and 0.001 μg/mL compared to untreated controls", "experimental": "In vitro Matrigel antiangiogenesis assays were implemented according to the Developmental Therapeutics Program NCI/NIH protocols known to one of skill in the art. Matrigel, a basement membrane matrix, was obtained from BD Biosciences. Growth inhibition and cord formation assays were Conducted using human umbilical vein endothelial cells obtained from GlycoTeCh. HUVEC cells were grown in EGM-2 medium.\nAn aliquot of sixty microliters was placed in each well of an ice-cold 96-well plate. The plates were then left for 15 minutes at room temperature, then incubated for 30 minutes at 37° C. to permit the matrigel to polymerize. Meanwhile, HUVEC cells were harvested and diluted to a concentration of 2×10^5 cells/ml. A solution of 100 μL containing the compounds to be tested was added next. After 24 hours incubation, pictures were taken for each concentration using an inverted Nikon Diaphot microscope and D100 digital camera. Drug effect was assessed, compared to untreated controls, by measuring the length of cords formed and number ofjunctions."}, "Enterococcus faecalis": {"tested_on": "Enterococcus faecalis", "assay": "reference broth microdilution susceptibility assay", "format": "cell-based", "conditions": "Table III", "in_short": "(§3)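 Read-out is growth susceptibility in the NCCLS reference broth microdilution format, under M27-A for the two yeasts and under M7-A5 for the two bacteria.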"}, "Staphylococcus aureus": {"tested_on": "Staphylococcus aureus", "assay": "reference broth microdilution susceptibility assay", "format": "cell-based", "conditions": "Table III", "in_short": "as §3"}, "Candida albicans": {"tested_on": "Candida albicans", "assay": "reference broth microdilution susceptibility assay", "format": "cell-based", "conditions": "Table III", "in_short": "(§4)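 Broth microdilution, NCCLS reference protocols: M7-A5 for M. luteus and E. coli; M27-A for C. neoformans and C. albicans.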"}, "Escherichia coli": {"tested_on": "Escherichia coli", "assay": "reference broth microdilution susceptibility assay", "format": "cell-based", "conditions": "Table III", "in_short": "as §4"}, "[8]": {"tested_on": "Stenotrophomonas maltophilia", "assay": "reference broth microdilution susceptibility assay", "format": "cell-based", "conditions": "Table III", "in_short": "as §3"}, "Neisseria gonorrhoeae": {"tested_on": "Neisseria gonorrhoeae", "assay": "reference broth microdilution susceptibility assay", "format": "cell-based", "conditions": "Table III", "in_short": "as §3"}, "Cryptococcus neoformans [9]": {"tested_on": "Cryptococcus neoformans", "assay": "reference broth microdilution susceptibility assay", "format": "cell-based", "conditions": "Table III", "in_short": "as §4"}, "Micrococcus luteus": {"tested_on": "Micrococcus luteus", "assay": "reference broth microdilution susceptibility assay", "format": "cell-based", "conditions": "Table III", "in_short": "as §4"}, "Enterobacter cloacae": {"tested_on": "Enterobacter cloacae", "assay": "reference broth microdilution susceptibility assay", "format": "cell-based", "conditions": "Table III", "in_short": "as §3"}, "Streptococcus pneumoniae": {"tested_on": "Streptococcus pneumoniae", "assay": "reference broth microdilution susceptibility assay", "format": "cell-based", "conditions": "Table III", "in_short": "as §3"}, "tubulin [10]": {"tested_on": "tubulin", "assay": "inhibition of [3H]colchicine binding to tubulin", "conditions": "1.0 μM tubulin, 5.0 μM [3H]colchicine, inhibitor at 1.0 μM, 10 minutes at 37° C.", "experimental": "as §2"}}, "data": [{"molecule": "C1CCNCC1.C1CCNCC1.COc1ccc(/C=C\\c2cc(I)c(OC)c(OC)c2)cc1OP(=O)(O)O", "note": "[O]", "values": [{"measurement": "Solubility", "setting": "solubility in D2O", "value": "≧4 mg/mL"}, {"measurement": "human cancer cell line growth inhibition (GI50) Pancreas BXPC-3", "setting": "Pancreas BXPC-3; Table Ia", "value": 0.32, "unit": "µg/mL"}, {"measurement": "human cancer cell line growth inhibition (GI50) Colon KM20L2", "setting": "Colon KM20L2; Table Ia", "value": 0.51, "unit": "µg/mL"}, {"measurement": "human cancer cell line growth inhibition (GI50) Lung-NSC NCI-H460", "setting": "Lung-NSC NCI-H460; Table Ia", "value": 0.0036, "unit": "µg/mL"}, {"measurement": "human cancer cell line growth inhibition (GI50) Breast MCF-7", "setting": "Breast MCF-7; Table Ia", "value": 0.0065, "unit": "µg/mL"}, {"measurement": "human cancer cell line growth inhibition (GI50) CNS SF268", "setting": "CNS SF268; Table Ia", "value": 0.0044, "unit": "µg/mL"}, {"measurement": "human cancer cell line growth inhibition (GI50) Prostate DU-145", "setting": "Prostate DU-145; Table Ia", "value": 0.0029, "unit": "µg/mL"}]}, {"molecule": "combretastatin A-3 [Compound 3a, reference compound]", "values": [{"measurement": "inhibition of growth of the pathogenic fungus Cryptococcus neoformans", "setting": "Cryptococcus neoformans [1]", "value": "inhibited growth"}, {"measurement": "activity relative to CA4 (1a) as an inhibitor of cell growth", "setting": "[2]", "value": "about one seventh as active"}, {"measurement": "activity relative to CA4 (1a) as an inhibitor of tubulin assembly", "setting": "purified tubulin [3]", "value": "about half as active"}, {"measurement": "Human cancer cell line inhibition (GI50) Pancreas-a BXPC-3", "setting": "Pancreas BXPC-3; Table I", "value": 2.3, "unit": "µg/mL"}, {"measurement": "Human cancer cell line inhibition (GI50) Colon KM20L2", "setting": "Colon KM20L2; Table I", "value": 1.2, "unit": "µg/mL"}, {"measurement": "Human cancer cell line inhibition (GI50) Lung-NSC NCI-H460", "setting": "Lung-NSC NCI-H460; Table I", "value": 0.19, "unit": "µg/mL"}, {"measurement": "Human cancer cell line inhibition (GI50) Breast adn MCF-7", "setting": "Breast MCF-7; Table I", "value": 0.49, "unit": "µg/mL"}, {"measurement": "Human cancer cell line inhibition (GI50) CNS SF268", "setting": "CNS SF268; Table I", "value": 0.0083, "unit": "µg/mL"}, {"measurement": "Human cancer cell line inhibition (GI50) Prostate DU-145", "setting": "Prostate DU-145; Table I", "value": 0.0043, "unit": "µg/mL"}, {"measurement": "activity relative to CA4 (1a) as an inhibitor of colchicine binding to tubulin", "setting": "tubulin [4]", "value": "about one fifth as active"}]}, {"molecule": "COc1ccc(/C=C\\c2cc(F)c(OC)c(OC)c2)cc1O", "note": "[Compound 11a, 3-Fluoro-4,4′,5-trimethoxy-3′-hydroxy-Z-stilbene]", "values": [{"measurement": "IC50", "setting": "purified tubulin [5]", "value": "1.5 ± 0.2", "unit": "µM"}, {"measurement": "ability to disrupt microtubules in HUVEC", "setting": "[6]", "value": "disrupt microtubules"}, {"measurement": "GI50", "setting": "Pancreas BXPC-3; Homo sapiens, BXPC-3, Table I, read-out: Human cancer cell line inhibition (GI50) Pancreas-a BXPC-3", "value": 0.016, "unit": "µg/mL"}, {"measurement": "GI50", "setting": "Colon KM20L2; Homo sapiens, KM-20L2, Table I, read-out: Human cancer cell line inhibition (GI50) Colon KM20L2", "value": 1.1, "unit": "µg/mL"}, {"measurement": "GI50", "setting": "Lung-NSC NCI-H460; Homo sapiens, NCI-H460, Table I, read-out: Human cancer cell line inhibition (GI50) Lung-NSC NCI-H460", "value": "< 0.01", "unit": "µg/mL"}, {"measurement": "GI50", "setting": "Breast MCF-7; Homo sapiens, MCF7, Table I, read-out: Human cancer cell line inhibition (GI50) Breast adn MCF-7", "value": "< 0.01", "unit": "µg/mL"}, {"measurement": "GI50", "setting": "CNS SF268; Homo sapiens, SF-268, Table I, read-out: Human cancer cell line inhibition (GI50) CNS SF268", "value": "< 0.01", "unit": "µg/mL"}, {"measurement": "GI50", "setting": "Prostate DU-145; Homo sapiens, DU-145, Table I, read-out: Human cancer cell line inhibition (GI50) Prostate DU-145", "value": "< 0.01", "unit": "µg/mL"}, {"measurement": "Cords length as well as junction numbers", "setting": "[7]", "value": "markedly reduced"}, {"measurement": "Range of minimum inhibitory concentration, Enterococcus faecalis", "setting": "Enterococcus faecalis", "value": "* (no inhibition at 64 μg/ml)"}, {"measurement": "Range of minimum inhibitory concentration, Staphylococcus aureus", "setting": "Staphylococcus aureus", "value": "* (no inhibition at 64 μg/ml)"}, {"measurement": "Range of minimum inhibitory concentration, Candida albicans", "setting": "Candida albicans", "value": "* (no inhibition at 64 μg/ml)"}, {"measurement": "Range of minimum inhibitory concentration, Escherichia coli", "setting": "Escherichia coli", "value": "* (no inhibition at 64 μg/ml)"}, {"measurement": "Range of minimum inhibitory concentration, Stenotrophomonas maltophilia", "setting": "[8]", "value": "* (no inhibition at 64 μg/ml)"}, {"measurement": "Range of minimum inhibitory concentration, Neisseria gonorrhoeae", "setting": "Neisseria gonorrhoeae", "value": 32, "unit": "µg/mL"}, {"measurement": "Range of minimum inhibitory concentration, Cryptococcus neoformans", "setting": "Cryptococcus neoformans [9]", "value": 64, "unit": "µg/mL"}, {"measurement": "Range of minimum inhibitory concentration, Micrococcus luteus", "setting": "Micrococcus luteus", "value": "32 to 64", "unit": "µg/mL"}, {"measurement": "Range of minimum inhibitory concentration, Enterobacter cloacae", "setting": "Enterobacter cloacae", "value": "* (no inhibition at 64 μg/ml)"}, {"measurement": "Range of minimum inhibitory concentration, Streptococcus pneumoniae", "setting": "Streptococcus pneumoniae", "value": 64, "unit": "µg/mL"}, {"measurement": "Inhibition of colchicine binding % inhibition ± S.D.", "setting": "tubulin [10]", "value": "75 ± 6", "unit": "%"}]}]}
